In test [1] the test system is Pseudomonas aeruginosa. The test can be described thus: Antimicrobial activity against Pseudomonas aeruginosa MTCC 4673 at 100 ug/mL after 12 hrs by well diffusion method. Type of test: functional. As to conditions: MTCC 4673, 12 h, read-out: DIZ. For orientation: In agar diffusion tests the substance spreads into inoculated agar from a disc or well.
Test [2] relates to Salmonella typhimurium. As to the kind of experiment: Antimicrobial activity against Salmonella typhimurium MTCC 3732 after 12 hrs by well diffusion method. Type of test: functional, Salmonella enterica subsp. enterica serovar Typhimurium. The conditions noted are these: Salmonella enterica, MTCC 3732, 12 h.
In test [3] the test system is Mycolicibacterium smegmatis. The test can be described thus: Antimicrobial activity against Mycobacterium smegmatis MTCC 943 at 100 ug/mL after 12 hrs by well diffusion method. As to conditions: for zone of inhibition at 100 µg/mL: MTCC 943, 12 h, read-out: DIZ. Type of test: functional.
In a further test the test system is Penicillium chrysogenum. As to the kind of experiment: Antimicrobial activity against Penicillium chrysogenum MTCC 6795 at 50 to 100 ug/mL after 48 hrs by well diffusion method. Format: functional, organism-based.
The test system of test [4] is Candida albicans. The test can be described thus: Antimicrobial activity against Candida albicans MTCC 183 at 50 ug/mL after 12 hrs by well diffusion method. Type of test: functional.
For test [5], the system named is Mycolicibacterium smegmatis. As to the kind of experiment: Antimicrobial activity against Mycobacterium smegmatis MTCC 943 after 12 hrs by well diffusion method. Format: functional. The conditions noted are these: MTCC 943, 12 h.
For test [6], the system named is Salmonella typhimurium. As to the kind of experiment: Antimicrobial activity against Salmonella typhimurium MTCC 3732 at 50 ug/mL after 12 hrs by well diffusion method. Format: functional. The conditions noted are these: for diameter of the inhibition zone (DIZ): Salmonella enterica subsp. enterica serovar Typhimurium; for zone of inhibition at 50 µg/mL: Salmonella enterica, MTCC 3732, 12 h, read-out: DIZ.

Test [7] has as its system Pseudomonas aeruginosa. The test can be described thus: Antimicrobial activity against Pseudomonas aeruginosa MTCC 4673 after 12 hrs by well diffusion method. Format: functional. The conditions noted are these: MTCC 4673, 12 h.
The subject of test [8] is Pseudomonas aeruginosa. As to the kind of experiment: Antimicrobial activity against Pseudomonas aeruginosa MTCC 4673 at 50 ug/mL after 12 hrs by well diffusion method. Format: functional. The conditions noted are these: MTCC 4673, 12 h, read-out: DIZ.
In test [9] the test system is Mycolicibacterium smegmatis. The test can be described thus: Antimicrobial activity against Mycobacterium smegmatis MTCC 943 at 50 ug/mL after 12 hrs by well diffusion method. Format: functional. As to conditions: for zone of inhibition at 50 µg/mL: MTCC 943, 12 h, read-out: DIZ.
Test [10] relates to Staphylococcus aureus. The test can be described thus: Antimicrobial activity against Staphylococcus aureus MTCC 3160 at 100 ug/mL after 12 hrs by well diffusion method. Format: functional. The conditions noted are these: for zone of inhibition at 100 µg/mL: MTCC 3160, 12 h, read-out: DIZ.
Test [11] concerns Staphylococcus aureus. The test can be described thus: Antimicrobial activity against Staphylococcus aureus MTCC 3160 after 12 hrs by well diffusion method. Format: functional. As to conditions: MTCC 3160, 12 h.
Test [12] relates to Candida albicans. The test can be described thus: Antimicrobial activity against Candida albicans MTCC 183 after 12 hrs by well diffusion method. Format: functional. As to conditions: MTCC 183, 12 h.
The subject of test [13] is Staphylococcus aureus. The conditions noted are these: MTCC 3160, 50 ug/mL.
Description: (§1) Antimicrobial activity against Staphylococcus aureus MTCC 3160 at 50 ug/mL after 12 hrs by well diffusion method
The subject of test [14] is Candida albicans. The test can be described thus: Antimicrobial activity against Candida albicans MTCC 183 at 100 ug/mL after 12 hrs by well diffusion method. Format: functional.
In test [15] the test system is Salmonella typhimurium. The test can be described thus: Antimicrobial activity against Salmonella typhimurium MTCC 3732 at 100 ug/mL after 12 hrs by well diffusion method. Format: functional. The conditions noted are these: for diameter of the inhibition zone (DIZ): Salmonella enterica subsp. enterica serovar Typhimurium; for zone of inhibition at 100 µg/mL: Salmonella enterica, MTCC 3732, 12 h, read-out: DIZ.

In test [16] the test system is Staphylococcus aureus. As to the kind of experiment: microbe, parasite or virus in culture. As to conditions: MTCC 3160, 12 h, read-out: DIZ.
Description: as §1

Converted amounts (≈) assume the structure as drawn. The source made the active and inactive calls. The rule behind the calls is not given here.

The values that follow come from ChEMBL document CHEMBL2424533, “Design and regioselective synthesis of trifluoromethylquinolone derivatives as potent antimicrobial agents” (2013).

The term MIC denotes the lowest concentration that inhibits growth of the organism. With `N#Cc1ccc(Cn2cc(C(=O)NN)c(=O)c3cccc(C(F)(F)F)c32)cc1`, the zone of inhibition at 100 µg/mL (with Pseudomonas aeruginosa [1]; in test [3]; in the test with Staphylococcus aureus [10]) was 8 mm each time. For the same compound, the MIC with Salmonella typhimurium [2] was over 100 mg/L; in [5] it was 50 mg/L (≈ 129 µM); in the test on Pseudomonas aeruginosa [7], 25 mg/L (≈ 64.7 µM); in the test with Staphylococcus aureus [11], 100 mg/L (≈ 259 µM); in the test on Candida albicans [12], over 100 mg/L. Besides, the result in the test on Penicillium chrysogenum was inactive. The “diameter of the inhibition zone (DIZ)” value in the test with Candida albicans [4], in the test on Salmonella typhimurium [6], in the test on Candida albicans [14] and with Salmonella typhimurium [15] was “inactive” each time. For the same compound, the zone of inhibition at 50 µg/mL in the test with Pseudomonas aeruginosa [8] worked out at 8 mm; in test [9], 7.3 mm. For the same compound, in the test with Staphylococcus aureus [13], the DIZ entry is “inactive”.
On to `CCOC(=O)c1cn(Cc2ccc(C#N)cc2)c2cc(C(F)(F)F)ccc2c1=O`, for which the zone of inhibition at 100 µg/mL in the test on Pseudomonas aeruginosa [1] and with Salmonella typhimurium [15] was 8 mm each time. In addition, the MIC was 50 mg/L (≈ 125 µM) against Salmonella typhimurium [2]; 50 mg/L (≈ 125 µM) in test [5]; 25 mg/L (≈ 62.4 µM) against Pseudomonas aeruginosa [7]; over 100 mg/L against Staphylococcus aureus [11]; over 100 mg/L with Candida albicans [12]. The “diameter of the inhibition zone (DIZ)” value (in [3]; in the test with Candida albicans [4]; with Staphylococcus aureus [10]; with Candida albicans [14]) was “inactive” throughout. Moreover, the outcome with Penicillium chrysogenum was inactive. Besides, the values for the zone of inhibition at 50 µg/mL (with Salmonella typhimurium [6]; in the test on Pseudomonas aeruginosa [8]; in test [9]) were 7.3 mm, 8 mm and 7 mm, respectively. The DIZ result in the test on Staphylococcus aureus [13] is “inactive”.
For `CCOC(=O)c1cn(Cc2ccc(Cl)cc2Cl)c2c(C(F)(F)F)cccc2c1=O`, the results for the zone of inhibition at 100 µg/mL (in the test with Pseudomonas aeruginosa [1]; in test [3]; in the test on Staphylococcus aureus [10]) were 7 mm, 8 mm and 9 mm, respectively. In addition, the MIC in the test on Salmonella typhimurium [2] is over 100 mg/L; in test [5] it was 50 mg/L (≈ 113 µM); with Pseudomonas aeruginosa [7], 50 mg/L (≈ 113 µM); against Staphylococcus aureus [11], 100 mg/L (≈ 225 µM); in the test with Candida albicans [12] it was over 100 mg/L. Moreover, the outcome with Penicillium chrysogenum was inactive. Besides, the “diameter of the inhibition zone (DIZ)” value in the test on Candida albicans [4], in the test with Salmonella typhimurium [6], in the test with Candida albicans [14] and in the test on Salmonella typhimurium [15] was “inactive” each time. In addition, the zone of inhibition at 50 µg/mL (in the test with Pseudomonas aeruginosa [8]; in test [9]) was 7 mm each time. The DIZ result with Staphylococcus aureus [13] was “inactive”.
For the compound `N#Cc1ccc(Cn2cc(C(=O)NN)c(=O)c3ccc(C(F)(F)F)cc32)cc1`, the zone of inhibition at 100 µg/mL (in the test with Pseudomonas aeruginosa [1]; in [3]) was 8 mm throughout. The MIC against Salmonella typhimurium [2] was over 100 mg/L; in test [5], 25 mg/L (≈ 64.7 µM); against Pseudomonas aeruginosa [7] it was 25 mg/L (≈ 64.7 µM); in the test on Staphylococcus aureus [11] it was over 100 mg/L; against Candida albicans [12] it was over 100 mg/L. Besides, the outcome in the test with Penicillium chrysogenum was inactive. For the same compound, the “diameter of the inhibition zone (DIZ)” value in the test with Candida albicans [4], in the test on Salmonella typhimurium [6], in the test on Staphylococcus aureus [10], with Candida albicans [14] and with Salmonella typhimurium [15] was “inactive” each time. Besides, the zone of inhibition at 50 µg/mL (in the test on Pseudomonas aeruginosa [8]; in [9]) was 8 mm throughout. Also, the DIZ result with Staphylococcus aureus [13] was “inactive”.
With `O=C(O)c1cn(C2CC2)c2cc(N3CCNCC3)c(F)cc2c1=O` [CIPROFLOXACIN], the zone of inhibition at 50 µg/mL in the test with Staphylococcus aureus [16] is 13 mm; in the test with Salmonella typhimurium [6], 37 mm; in the test with Pseudomonas aeruginosa [8] it was 26.6 mm; in test [9] it was 29 mm. Also, the zone of inhibition at 100 µg/mL with Pseudomonas aeruginosa [1] stood at 30 mm; in test [3], 30 mm; in the test on Staphylococcus aureus [10] it was 13 mm; in the test with Salmonella typhimurium [15], 37 mm. Moreover, the MIC (in the test on Salmonella typhimurium [2]; in test [5]; against Pseudomonas aeruginosa [7]; in the test with Staphylococcus aureus [11]) was under 5 mg/L in each case.
For the compound `NNC(=O)c1cn(Cc2ccc(Cl)cc2Cl)c2c(C(F)(F)F)cccc2c1=O`, the zone of inhibition at 100 µg/mL in the test on Pseudomonas aeruginosa [1] came to 8 mm; in the test on Staphylococcus aureus [10] it was 9 mm; in the test with Salmonella typhimurium [15], 12 mm. Besides, the MIC is 25 mg/L (≈ 58.1 µM) with Salmonella typhimurium [2]; over 100 mg/L in test [5]; 25 mg/L (≈ 58.1 µM) in the test with Pseudomonas aeruginosa [7]; 100 mg/L (≈ 232 µM) in the test with Staphylococcus aureus [11]; over 100 mg/L in the test with Candida albicans [12]. Also, the “diameter of the inhibition zone (DIZ)” value (in [3]; with Candida albicans [4]; in test [9]; in the test with Candida albicans [14]) was “inactive” throughout. For the same compound, the outcome with Penicillium chrysogenum was inactive. Further, the figures for the zone of inhibition at 50 µg/mL in the test with Salmonella typhimurium [6] and in the test on Pseudomonas aeruginosa [8] were 11.3 mm and 8 mm, respectively. The DIZ entry in the test with Staphylococcus aureus [13] is “inactive”.
As for `C#CCn1cc(C(=O)NN)c(=O)c2ccc(C(F)(F)F)cc21`, the zone of inhibition at 100 µg/mL (in the test on Pseudomonas aeruginosa [1]; in [3]; in the test on Salmonella typhimurium [15]) was 8 mm each time. Further, the MIC was 25 mg/L (≈ 80.8 µM) in the test with Salmonella typhimurium [2]; 25 mg/L (≈ 80.8 µM) in test [5]; 25 mg/L (≈ 80.8 µM) in the test with Pseudomonas aeruginosa [7]; 100 mg/L (≈ 323 µM) against Staphylococcus aureus [11]; over 100 mg/L in the test on Candida albicans [12]. In addition, the result in the test on Penicillium chrysogenum was inactive. In addition, the “diameter of the inhibition zone (DIZ)” value in the test on Candida albicans [4], with Staphylococcus aureus [10] and in the test on Candida albicans [14] was “inactive” in each case. Moreover, the zone of inhibition at 50 µg/mL with Salmonella typhimurium [6] was 7.6 mm; in the test with Pseudomonas aeruginosa [8] it was 8 mm; in test [9], 8 mm. Besides, the DIZ entry in the test on Staphylococcus aureus [13] was “inactive”.
